System: GA-primed murine splenocytes
Assay: Tolerance method for assessing process variability
[1] = microarray, splenocytes activated 24 hours

Substance: glatiramer acetate [GA]
- AVG expression of SH3RF1, probe ILMN_2602597 [1]: 7.302
- AVG expression of SLC25A1, probe ILMN_2619846 [1]: 8.032
- AVG expression of SLCO3A1, probe ILMN_2663230 [1]: 8.007
- AVG expression of SMOX, probe ILMN_2597030 [1]: 8.19
- AVG expression of SPN, probe ILMN_2574982 [1]: 6.823
- AVG expression of STK4, probe ILMN_3004142 [1]: 11.07
- AVG expression of TARDBP, probe ILMN_3093089 [1]: 8.366
- AVG expression of TBCD, probe ILMN_2891506 [1]: 9.516
- AVG expression of TNF, probe ILMN_2899863 [1]: 8.846
- AVG expression of TNFAIP3, probe ILMN_1252202 [1]: 9.205
- AVG expression of TNIP1, probe ILMN_2417863 [1]: 10.34
- AVG expression of UBAC2, probe ILMN_2484838 [1]: 8.614
- AVG expression of UBAC2, probe ILMN_2949605 [1]: 10.08
- AVG expression of UBE2L6, probe ILMN_2431619 [1]: 8.561
- AVG expression of UCHL5, probe ILMN_1240153 [1]: 8.74
- AVG expression of VAMP4, probe ILMN_2516348 [1]: 8.312
- AVG expression of WDR68, probe ILMN_2546073 [1]: 7.546
- AVG expression of ZBP1, probe ILMN_1228653 [1]: 7.444
- AVG expression CCND2 (probe IIMN_2700166): 11.38
- AVG expression RFTN2 (probe ILMN_1212653): 7.109
- AVG expression ZFP318 (probe ILMN_1212982): 9.704
- AVG expression TXNIP (probe ILMN_1213609): 11.89
- AVG expression SGK1 (probe ILMN_1213954): 9.667
- AVG expression IFITM1 (probe ILMN_1214071): 11.55
- AVG expression SNX29 (probe ILMN_1214294): 7.713
- AVG expression A530050E01RIK (probe ILMN_1214783): 7.616
- AVG expression IL24 (probe ILMN_1214841): 7.762
- AVG expression HSD11B1 (probe ILMN_1214998): 8.421
- AVG expression LOC100046608 (probe ILMN_1215796): 7.035
- AVG expression CXCL9 (probe ILMN_1215862): 9.757
- AVG expression APOE (probe ILMN_1216042): 7.5268
- AVG expression STIM1 (probe ILMN_1216313): 8.348
- AVG expression TPCN1 (probe ILMN_1217102): 8.543
- AVG expression IFITM1 (probe ILMN_1217180): 11.85
- AVG expression PKIB (probe ILMN_1217389): 11.19
- AVG expression PRKACB (probe ILMN_1217408): 11.88
- AVG expression ITGAE (probe ILMN_1217629): 7.553
- AVG expression STAU2 (probe ILMN_1217723): 8.737
- AVG expression ITK (probe ILMN_1217899): 7.055
- AVG expression D230007K08RIK (probe ILMN_1217913): 9.225
- AVG expression SCO1 (probe ILMN_1218036): 9.072
- AVG expression TMIE (probe ILMN_1218037): 8.752
- AVG expression IFITM6 (probe ILMN_1218181): 6.28
- AVG expression CD69 (probe ILMN_1218240): 11.83
- AVG expression IL18R1 (probe ILMN_1218525): 7.946
- AVG expression A630054M16RIK (probe ILMN_1218533): 8.828
- AVG expression LOC385615 (probe ILMN_1218717): 8.213
- AVG expression EMB (probe ILMN_1218799): 9.501
- AVG expression 5031436O03RIK (probe ILMN_1219017): 7.811
- AVG expression LTK (probe ILMN_1219860): 7.398
- AVG expression LOC623121 (probe ILMN_1219896): 9.039
- AVG expression EBI2 (probe ILMN_1220101): 11.29
- AVG expression CTSG (probe ILMN_1220236): 7.594
- AVG expression TTC28 (probe ILMN_1220397): 7.127
- AVG expression GM590 (probe ILMN_1220788): 8.022
- AVG expression PSAT1 (probe ILMN_1221048): 10.49
- AVG expression TTYH3 (probe ILMN_1221311): 7.858
- AVG expression LOC100048841 (probe ILMN_1221516): 7.303
- AVG expression ADCY7 (probe ILMN_1221530): 8.272
- AVG expression ELA2 (probe ILMN_1221700): 6.367
- AVG expression FCGRT (probe ILMN_1221819): 8.525
- AVG expression FAIM3 (probe ILMN_1221820): 13.69
- AVG expression PAQR7 (probe ILMN_1222036): 6.448
- AVG expression UGT1A10 (probe ILMN_1222543): 6.383
- AVG expression ROGDI (probe ILMN_1222821): 8.291
- AVG expression INDO (probe ILMN_1223600): 7.297
- AVG expression SMPDL3A (probe ILMN_1224116): 7.588
- AVG expression SPSB1 (probe ILMN_1224336): 8.95
- AVG expression LOC380797 (probe ILMN_1224473): 8.096
- AVG expression E130113K22RIK (probe ILMN_1224945): 7.685
- AVG expression PRKCB (probe ILMN_1225085): 11.14
- AVG expression 4930519L02RIK (probe ILMN_1225132): 7.525
- AVG expression CDKN2D (probe ILMN_1225214): 8.24
- AVG expression FDPS (probe ILMN_1225730): 12.65
- AVG expression MFSD2 (probe ILMN_1225764): 8.49
- AVG expression GAB3 (probe ILMN_1226514): 7.563
- AVG expression E030007N04RIK (probe ILMN_1226755): 8.626
- AVG expression MAN2A2 (probe ILMN_1226901): 6.871
- AVG expression D9ERTD392E (probe ILMN_1227277): 9.413
- AVG expression ITGB7 (probe ILMN_1227434): 9.885
- AVG expression LOC386545 (probe ILMN_1227570): 8.23
- AVG expression IL12RB1 (probe ILMN_1227900): 8.071
- AVG expression GMFG (probe ILMN_1227907): 10.95
- AVG expression IFI30 (probe ILMN_1228213): 12.19
- AVG expression A430106G13RIK (probe ILMN_1228804): 6.595
- AVG expression NGP (probe ILMN_1228832): 8.125
- AVG expression C330023M02RIK (probe ILMN_1228917): 9.763

Reference: patent US20140193827A1 (TEVA PHARMACEUTICAL INDUSTRIES, LTD., priority 2013, published 2014)
